The supplement of paper PMC10307832

Experiments:
Experiment in all cases: relative viability (nuclei count vs DMSO), 5 days (fraction); higher = more cells survive
NCI-H2126 = test system: NCI-H2126
Summary of the method: (§1)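 Nuclei were stained with Hoechst during a one-step fixation (final 0.05% Triton X-100, 1% formaldehyde, 1 ug/ml Hoechst) carried out 5 days after dosing, then counted on 4× images. The cells, lung cancer lines in 1536-well plates, had been dosed by pin tool the day after seeding with one drug alone or a fixed anchor-drug dose plus five library-drug doses (not always all listed) in √10 steps. Relative viability is the nuclei count in treated wells divided by that in vehicle wells, and each value is the median of duplicate plates.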

CAL-12T = test system: CAL-12T
Summary of the method: as §1

EPLC-272H = test system: EPLC-272H
Summary of the method: as §1

LXF-289 = test system: LXF-289
Summary of the method: as §1

NCI-H1915 = test system: NCI-H1915
Summary of the method: as §1

NCI-H3122 = test system: NCI-H3122
Summary of the method: as §1

HOP-62 = test system: HOP-62
Summary of the method: as §1

NCI-H1975 = test system: NCI-H1975
Summary of the method: as §1

NCI-H1666 = test system: NCI-H1666
Summary of the method: as §1

UMC-11 = test system: UMC-11
Summary of the method: as §1

NCI-H2023 = test system: NCI-H2023
Summary of the method: as §1

NCI-H441 = test system: NCI-H441
Summary of the method: as §1

EMC-BAC-2 = test system: EMC-BAC-2
Summary of the method: as §1

NCI-H358 = test system: NCI-H358
Summary of the method: as §1

HCC-15 = test system: HCC-15
Summary of the method: as §1

NCI-H2085 = test system: NCI-H2085
Summary of the method: as §1

NCI-H1755 = test system: NCI-H1755
Summary of the method: as §1

COR-L 105 = test system: COR-L 105
Summary of the method: as §1

ABC-1 = test system: ABC-1
Summary of the method: as §1

HCC-78 = test system: HCC-78
Summary of the method: as §1

NCI-H322M = test system: NCI-H322M
Summary of the method: as §1

Structure (SMILES): CCN(CC)CCCCNc1ncc2cc(-c3cc(OC)cc(OC)c3)c(NC(=O)NC(C)(C)C)nc2n1 + Cc1nc(NC(=O)N2CCC[C@H]2C(N)=O)sc1-c1ccnc(C(C)(C)C(F)(F)F)c1 [Alpelisib] (partner 2 µM)
- relative viability (NCI-H2126; first compound 0.01 µM): 0.736
- relative viability (NCI-H2126; first compound 0.03162 µM): 0.734
- relative viability (NCI-H2126; first compound 0.1 µM): 0.742
- relative viability (NCI-H2126; first compound 0.3162 µM): 0.815
- relative viability (NCI-H2126; first compound 1 µM): 0.75
- relative viability (CAL-12T; first compound 0.01 µM): 1.35
- relative viability (CAL-12T; first compound 0.03162 µM): 1.24
- relative viability (CAL-12T; first compound 0.1 µM): 1.14
- relative viability (CAL-12T; first compound 0.3162 µM): 1.49
- relative viability (CAL-12T; first compound 1 µM): 0.902
- relative viability (EPLC-272H; first compound 0.01 µM): 0.918
- relative viability (EPLC-272H; first compound 0.1 µM): 1.01
- relative viability (EPLC-272H; first compound 0.3162 µM): 1.07
- relative viability (EPLC-272H; first compound 1 µM): 0.883
- relative viability (LXF-289; first compound 0.01 µM): 1.07
- relative viability (LXF-289; first compound 0.03162 µM): 1.06
- relative viability (LXF-289; first compound 0.1 µM): 1.19
- relative viability (LXF-289; first compound 0.3162 µM): 1.02
- relative viability (LXF-289; first compound 1 µM): 0.971
- relative viability (NCI-H1915; first compound 0.01 µM): 1.07
- relative viability (NCI-H1915; first compound 0.03162 µM): 1.15
- relative viability (NCI-H1915; first compound 0.1 µM): 1.06
- relative viability (NCI-H1915; first compound 0.3162 µM): 1.14
- relative viability (NCI-H1915; first compound 1 µM): 1.07
- relative viability (NCI-H3122; first compound 0.01 µM): 0.941
- relative viability (NCI-H3122; first compound 0.03162 µM): 0.877
- relative viability (NCI-H3122; first compound 0.1 µM): 0.906
- relative viability (NCI-H3122; first compound 0.3162 µM): 0.931
- relative viability (NCI-H3122; first compound 1 µM): 0.824
- relative viability (HOP-62; first compound 0.01 µM): 0.82
- relative viability (HOP-62; first compound 0.03162 µM): 1.1
- relative viability (HOP-62; first compound 0.1 µM): 0.89
- relative viability (HOP-62; first compound 0.3162 µM): 1.04
- relative viability (HOP-62; first compound 1 µM): 0.726
- relative viability (NCI-H1975; first compound 0.01 µM): 0.699
- relative viability (NCI-H1975; first compound 0.03162 µM): 0.691
- relative viability (NCI-H1975; first compound 0.1 µM): 0.707
- relative viability (NCI-H1975; first compound 0.3162 µM): 0.787
- relative viability (NCI-H1975; first compound 1 µM): 0.451
- relative viability (NCI-H1666; first compound 0.01 µM): 0.963
- relative viability (NCI-H1666; first compound 0.03162 µM): 0.889
- relative viability (NCI-H1666; first compound 0.1 µM): 1.02
- relative viability (NCI-H1666; first compound 0.3162 µM): 0.995
- relative viability (NCI-H1666; first compound 1 µM): 0.74
- relative viability (UMC-11; first compound 0.01 µM): 1.08
- relative viability (UMC-11; first compound 0.03162 µM): 0.921
- relative viability (UMC-11; first compound 0.1 µM): 1.02
- relative viability (UMC-11; first compound 0.3162 µM): 1.17
- relative viability (UMC-11; first compound 1 µM): 0.88
- relative viability (NCI-H2023; first compound 0.01 µM): 0.685
- relative viability (NCI-H2023; first compound 0.03162 µM): 0.608
- relative viability (NCI-H2023; first compound 0.1 µM): 0.615
- relative viability (NCI-H2023; first compound 0.3162 µM): 0.676
- relative viability (NCI-H2023; first compound 1 µM): 0.529
- relative viability (NCI-H441; first compound 0.01 µM): 0.801
- relative viability (NCI-H441; first compound 0.03162 µM): 0.62
- relative viability (NCI-H441; first compound 0.1 µM): 0.698
- relative viability (NCI-H441; first compound 0.3162 µM): 0.708
- relative viability (NCI-H441; first compound 1 µM): 0.773
- relative viability (EMC-BAC-2; first compound 0.01 µM): 0.731
- relative viability (EMC-BAC-2; first compound 0.03162 µM): 0.798
- relative viability (EMC-BAC-2; first compound 0.1 µM): 0.811
- relative viability (EMC-BAC-2; first compound 0.3162 µM): 0.804
- relative viability (EMC-BAC-2; first compound 1 µM): 0.688
- relative viability (NCI-H358; first compound 0.01 µM): 1.06
- relative viability (NCI-H358; first compound 0.03162 µM): 0.901
- relative viability (NCI-H358; first compound 0.1 µM): 1.01
- relative viability (NCI-H358; first compound 0.3162 µM): 0.848
- relative viability (NCI-H358; first compound 1 µM): 0.725
- relative viability (HCC-15; first compound 0.01 µM): 1.03
- relative viability (HCC-15; first compound 0.03162 µM): 0.885
- relative viability (HCC-15; first compound 0.1 µM): 0.947
- relative viability (HCC-15; first compound 0.3162 µM): 0.966
- relative viability (HCC-15; first compound 1 µM): 0.868
- relative viability (NCI-H2085; first compound 0.01 µM): 1.04
- relative viability (NCI-H2085; first compound 0.03162 µM): 0.999
- relative viability (NCI-H2085; first compound 0.1 µM): 1.02
- relative viability (NCI-H2085; first compound 0.3162 µM): 0.983
- relative viability (NCI-H2085; first compound 1 µM): 0.907
- relative viability (NCI-H1755; first compound 0.01 µM): 0.983
- relative viability (NCI-H1755; first compound 0.03162 µM): 0.942
- relative viability (NCI-H1755; first compound 0.1 µM): 0.983
- relative viability (NCI-H1755; first compound 0.3162 µM): 1.06
- relative viability (NCI-H1755; first compound 1 µM): 0.927
- relative viability (COR-L 105; first compound 0.01 µM): 1
- relative viability (COR-L 105; first compound 0.03162 µM): 0.981
- relative viability (COR-L 105; first compound 0.1 µM): 1.06
- relative viability (COR-L 105; first compound 0.3162 µM): 1.01
- relative viability (COR-L 105; first compound 1 µM): 0.917
- relative viability (ABC-1; first compound 0.01 µM): 1.2
- relative viability (ABC-1; first compound 0.03162 µM): 0.997
- relative viability (ABC-1; first compound 0.1 µM): 1.06
- relative viability (ABC-1; first compound 0.3162 µM): 1.47
- relative viability (ABC-1; first compound 1 µM): 1.13
- relative viability (HCC-78; first compound 0.03162 µM): 0.255
- relative viability (HCC-78; first compound 0.1 µM): 0.308
- relative viability (HCC-78; first compound 0.3162 µM): 0.348
- relative viability (HCC-78; first compound 1 µM): 0.303
- relative viability (NCI-H322M; first compound 0.01 µM): 0.822
- relative viability (NCI-H322M; first compound 0.03162 µM): 0.782
- relative viability (NCI-H322M; first compound 0.1 µM): 0.77
- relative viability (NCI-H322M; first compound 0.3162 µM): 1.02
- relative viability (NCI-H322M; first compound 1 µM): 0.75
